Experimental data reported in patent US8048879B2, “Substituted 4,5,6,7-tetrahydro-isoxazolo[4,5-c]pyridine compounds and use thereof for producing medicaments” (Gruenenthal GmbH, priority 2005, dated 2011).

What follows are molecules tested on batrachotoxin (BTX) binding site of the sodium channel (assay: Affinity for the batrachotoxin (BTX) binding site of the sodium channel, [3H]-batrachotoxinin A20 α-benzoate, rat cerebrocortex synaptosomes). Conditions: test concentration not given.
O=C(NCCc1ccccc1)c1noc2c1CN(C(=S)Nc1c(F)c(F)c(F)c(F)c1F)CC2 [Example 131, 5-pentafluorophenylthiocarbamoyl-4,5,6,7-tetrahydro-isoxazolo[4,5-c]pyridine-3-carboxylic acid phenethyl amide] was tested, and the “BTX inhibition (rat) % inhibition” value was 58%.
In the case of O=C(c1noc2c1CN(S(=O)(=O)c1cc(Cl)ccc1Cl)CC2)N(CCc1ccccc1)Cc1ccccc1 [Example 59, 5-(2,5-dichloro-benzenesulfonyl)-4,5,6,7-tetrahydro-isoxazolo[4,5-c]pyridine-3-carboxylic acid benzyl-phenethyl amide], the “BTX inhibition (rat) % inhibition” value is reported as 58%.
With COc1ccc(OCCNC(=O)c2noc3c2CN(S(=O)(=O)c2ccc(C)cc2)CC3)cc1 [Example 109, 5-(toluene-4-sulfonyl)-4,5,6,7-tetrahydro-isoxazolo[4,5-c]pyridine-3-carboxylic acid [2-(4-methoxy-phenoxy)-ethyl] amide] the “BTX inhibition (rat) % inhibition” value was 56%.
With COCCNC(=S)N1CCc2onc(C(=O)NCCc3ccccc3)c2C1 [Example 130, 5-(2-methoxy-ethylthiocarbamoyl)-4,5,6,7-tetrahydro-isoxazolo[4,5-c]pyridine-3-carboxylic acid phenethyl amide] the “BTX inhibition (rat) % inhibition” value was 68%.
In the case of O=C(c1noc2c1CN(S(=O)(=O)c1cc(Cl)ccc1Cl)CC2)N1CCN(c2ccccc2Cl)CC1 [Example 110, [4-(2-chlorophenyl)-piperazin-1-yl]-[5-(2,5-dichloro-benzenesulfonyl)-4,5,6,7-tetrahydro-isoxazolo[4,5-c]pyridin-3-yl]-methanone], the “BTX inhibition (rat) % inhibition” value is reported as 55%.
With CCOC(=O)CCNC(=O)c1noc2c1CN(C(=S)NCC1CCCCC1)CC2 [Example 134, 3-{[5-(cyclohexylmethyl-thiocarbamoyl)-4,5,6,7-tetrahydro-isoxazolo[4,5-c]pyridine-3-carbonyl]-amino}-propionic acid ethyl ester] the “BTX inhibition (rat) % inhibition” value was 55%.
O=C(c1noc2c1CN(S(=O)(=O)c1ccc(F)cc1)CC2)N1CC=C(c2ccc(F)cc2)CC1 [Example 42, [5-(4-fluoro-benzenesulfonyl)-4,5,6,7-tetrahydro-isoxazolo[4,5-c]pyridin-3-yl]-[4-(4-fluorophenyl)-3,6-dihydro-2H-pyridin-1-yl]-methanone] was tested, and the “BTX inhibition (rat) % inhibition” value was 54%.
For O=C(c1noc2c1CN(S(=O)(=O)c1ccc3ccccc3c1)CC2)N1CCC(CCN2CCCC2)CC1 [Example 148, (5-(naphthalen-2-ylsulfonyl)-4,5,6,7-tetrahydroisoxazolo[4,5-c]pyridin-3-yl)(4-(2-(pyrrolidin-1-yl)ethyl)piperidin-1-yl)methanone], the “BTX inhibition (rat) % inhibition” value was 74%.
In the case of Cc1ccc(NC(=O)N2CCc3onc(C(=O)NCc4ccc(F)cc4)c3C2)cc1[N+](=O)[O-] [Example 14, 6,7-dihydro-4H-isoxazolo[4,5-c]pyridine-3,5-dicarboxylic acid 3-(4-fluorobenzyl amide) 5-[(4-methyl-3-nitro-phenyl) amide]], the “BTX inhibition (rat) % inhibition” value is reported as 70%.
In the case of CC(NC(=S)N1CCc2onc(C(=O)NCCc3ccccc3)c2C1)c1ccccc1 (stereo not shown) [Example 132, 5-(1-phenyl-ethylthiocarbamoyl)-4,5,6,7-tetrahydro-isoxazolo[4,5-c]pyridine-3-carboxylic acid phenethyl amide], the “BTX inhibition (rat) % inhibition” value is reported as 90%.
In the case of O=C(NCCCc1ccccc1)c1noc2c1CN(S(=O)(=O)c1ccc(F)cc1)CC2 [Example 35, 5-(4-fluoro-benzenesulfonyl)-4,5,6,7-tetrahydro-isoxazolo[4,5-c]pyridine-3-carboxylic acid (3-phenyl-propyl) amide], the “BTX inhibition (rat) % inhibition” value is reported as 59%.
In the case of CC(CNC(=O)c1noc2c1CN(S(=O)(=O)c1cccs1)CC2)c1ccccc1 (stereo not shown) [Example 104, 5-(thiophene-2-sulfonyl)-4,5,6,7-tetrahydro-isoxazolo[4,5-c]pyridine-3-carboxylic acid (2-phenyl-propyl) amide], the “BTX inhibition (rat) % inhibition” value is reported as 50%.
In the case of Cc1ccc(NC(=O)N2CCc3onc(C(=O)NCc4cccs4)c3C2)cc1[N+](=O)[O-] [Example 9, 6,7-dihydro-4H-isoxazolo[4,5-c]pyridine-3,5-dicarboxylic acid 5-[(4-methyl-3-nitro-phenyl) amide] 3-[(thiophen-2-ylmethyl) amide]], the “BTX inhibition (rat) % inhibition” value is reported as 43%.
Cc1ccc(N2CCN(C(=O)c3noc4c3CN(S(=O)(=O)c3cc(Cl)ccc3Cl)CC4)CC2)c(C)c1 [Example 65, [5-(2,5-dichloro-benzenesulfonyl)-4,5,6,7-tetrahydro-isoxazolo[4,5-c]pyridin-3-yl]-[4-(2,4-dimethyl-phenyl)-piperazin-1-yl]-methanone] was tested, and the “BTX inhibition (rat) % inhibition” value was 49%.
CCOC(=O)c1cccc(NC(=O)N2CCc3onc(C(=O)NCc4ccc(C)o4)c3C2)c1 [Example 23, 3-({3-[(5-methyl-furan-2-ylmethyl)-carbamoyl]-6,7-dihydro-4H-isoxazolo[4 5-c]pyridine-5-carbonyl}-amino)-benzoic acid ethyl ester] was tested, and the “BTX inhibition (rat) % inhibition” value was 46%.
In the case of O=C(NCC1CC1)c1noc2c1CN(C(=S)NCc1ccc(Cl)cc1)CC2 [Example 129, 5-(4-chloro-benzylthiocarbamoyl)-4,5,6,7-tetrahydro-isoxazolo[4,5-c]pyridine-3-carboxylic acid cyclopropylmethyl amide], the “BTX inhibition (rat) % inhibition” value is reported as 53%.
For O=C(c1noc2c1CN(S(=O)(=O)c1cccc3ccccc13)CC2)N1CCN(c2nccs2)CC1 [Example 142, (5-(naphthalen-1-ylsulfonyl)-4,5,6,7-tetrahydroisoxazolo[4,5-c]pyridin-3-yl)(4-(thiazol-2-yl)piperazin-1-yl)methanone], the “BTX inhibition (rat) % inhibition” value was 54%.
O=C(NC1CCN(Cc2ccc(C(F)(F)F)cc2)C1)c1noc2c1CN(S(=O)(=O)c1ccc(F)cc1)CC2 (stereo not shown) [Example 39, 5-(4-fluoro-benzenesulfonyl)-4,5,6,7-tetrahydro-isoxazolo[4,5-c]pyridine-3-carboxylic acid [1-(4-trifluoromethyl-benzyl)-pyrrolidin-3-yl]amide] was tested, and the “BTX inhibition (rat) % inhibition” value was 79%.
Cc1cc(C(=O)N2CCc3onc(C(=O)NCCN4CCCC4)c3C2)ccc1Br [Example 102, 5-(4-bromo-3-methyl-benzoyl)-4,5,6,7-tetrahydro-isoxazolo[4,5-c]pyridine-3-carboxylic acid (2-pyrrolidin-1-yl-ethyl) amide] was tested, and the “BTX inhibition (rat) % inhibition” value was 73%.
O=C(NC(=S)N1CCc2onc(C(=O)NCCN3CCCC3)c2C1)c1ccccc1 [Example 128, 5-benzoylaminocarbothioyl-4,5,6,7-tetrahydro-isoxazolo[4,5-c]pyridine-3-carboxylic acid (2-pyrrolidin-1-yl-ethyl) amide] was tested, and the “BTX inhibition (rat) % inhibition” value was 74%.
In the case of Cc1ccc(S(=O)(=O)N2CCc3onc(C(=O)NCc4ccc(S(N)(=O)=O)cc4)c3C2)cc1 [Example 157, N-(4-sulfamoylbenzyl)-5-tosyl-4,5,6,7-tetrahydroisoxazolo[4,5-c]pyridine-3-carboxamide], the “BTX inhibition (rat) % inhibition” value is reported as 17%.
For Cc1ccc(NC(=O)N2CCc3onc(C(=O)NCCc4ccccc4)c3C2)cc1[N+](=O)[O-] [Example 4, 6,7-dihydro-4H-isoxazolo[4,5-c]pyridine-3,5-dicarboxylic acid 5-[(4-methyl-3-nitro-phenyl) amide] 3-(phenethyl amide)], the “BTX inhibition (rat) % inhibition” value was 80%.
